US12180137B1, “Solid forms of enantiopure deuterium-enriched bupropion and methods of use thereof” (DeuteRx, LLC, priority 2024, dated 2024)
Structures can show the parent of a compound that is named as a salt.

Assay: Particle size distribution by laser diffraction (Malvern Mastersizer 3000, wet dispersion)
Type: physicochemical
Details: wet dispersion in Isopar G, average of three consecutive measurements
Protocol: Particle size distribution was analyzed using laser diffraction. The apparatus used was a Malvern Mastersizer 3000 equipped with a Hydro 3000S cell for wet dispersion measurements. The measuring range was 0.01-3500 μm, the dispersant used was Isopar G (dispersant RI 1.42). The scattering model used was Mie (material RI 1.50, AI 0.10). The cell was cleaned, filled with dispersant, aligned and the background measured (30 sec. for red light, 10 seconds for blue light). The pump speed was set at 2800 rpm. About 100 mg of the sample were dispersed in 0.5 ml of 2% w/w soy lecithin solution in isopar G, stirred gently with a glass rod and brought to 10 ml with isopar G. The suspension was sonicated for about a minute, then added dropwise to the measurement cell until an obscuration of 10-20% was obtained. The sample was then measured for 20 seconds with red light and 10 seconds with blue light. The results given, expressed in Dv(10), Dv(50) and Dv(90) are the average of three consecutive measurements (Table 3).

[2H]N(C(C)(C)C)[C@@]([2H])(C)C(=O)c1cccc(Cl)c1 [Compound 101]
Particle size distribution Dv(10): 7.1 μm
Particle size distribution Dv(50): 31 μm
Particle size distribution Dv(90): 179 μm

CC(NC(C)(C)C)C(=O)c1cccc(Cl)c1 (racemic) [Bupropion HCl]
Particle size distribution Dv(10): 4.9 μm
Particle size distribution Dv(50): 64 μm
Particle size distribution Dv(90): 208 μm
